Patent publication US5223526A, “Pyrazole carboxanilide fungicides and use” (Monsanto Company, priority 1992, dated 1993)
Where two headings read alike, the source gives them in different places.

Legend:
Rhizoctonia solani = assay: Rice sheath blight; type: in vivo; set-up: scale not given here; settings: inoculated two days later, rated after 7 days, average of five plants; for Disease Control Rating at 0.02 mg/mL: foliage and soil sprayed with 0.02 mg/mL; for Disease Control Rating at 0.1 mg/mL: foliage and soil sprayed with 0.1 mg/mL; for Disease Control Rating at 0.5 mg/mL: foliage and soil sprayed with 0.5 mg/mL
Summary of the method: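 Preventive test: R. solani inoculum on rice grain was applied at the plant base two days after spraying foliage and soil with Compound A (0.5, 0.1 or 0.02 mg/mL, water/acetone/Tween 20). Plants aged 11–15 days stood in flood trays; after 7 days at 25 °C and high humidity, disease control was rated against untreated plants, five plants averaged.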

Botrytis cinerea [1] = assay: Eggplant grey mold; type: in vivo; set-up: scale not given here; settings: inoculated 24 h later, rated after 3-4 days; for Disease Control Rating at 20 ppm: eggplant sprayed with 20 ppm; for Disease Control Rating at 100 ppm: eggplant sprayed with 100 ppm; for Disease Control Rating at 500 ppm: eggplant sprayed with 500 ppm
Summary of the method: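 Protective test: compound formulations (2:3 acetone:water, 0.5% Tween 20; 500, 100 or 20 ppm) sprayed on 14-18-day-old plants, with spore inoculum (4×10^6 spore/mL) applied a day later. Disease control rated on Botrytis lesions after 3-4 days at 23 °C and 100% humidity.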

succinate dehydrogenase = target: T1, succinate dehydrogenase (Botrytis cinerea, UniProt A0A384J5E4+A0A384J8V8+A0A384JHJ5); assay: Enzyme inhibition: succinate dehydrogenase activity in Botrytis cinerea mitochondria (DCPIP reduction); type: biochemical
T1 construct: succinate-DCPIP reductase assay with KCN
T1 sequence (A0A384J5E4 1-300): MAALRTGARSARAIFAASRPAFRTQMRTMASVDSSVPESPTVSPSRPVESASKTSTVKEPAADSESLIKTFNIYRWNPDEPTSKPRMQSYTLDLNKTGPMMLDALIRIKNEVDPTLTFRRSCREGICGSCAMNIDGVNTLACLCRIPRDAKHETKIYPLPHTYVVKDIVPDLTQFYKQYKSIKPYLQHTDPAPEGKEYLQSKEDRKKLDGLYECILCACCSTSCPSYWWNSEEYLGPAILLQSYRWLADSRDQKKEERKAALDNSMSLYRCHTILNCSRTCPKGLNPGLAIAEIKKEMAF
T1 sequence (A0A384J8V8 1-189): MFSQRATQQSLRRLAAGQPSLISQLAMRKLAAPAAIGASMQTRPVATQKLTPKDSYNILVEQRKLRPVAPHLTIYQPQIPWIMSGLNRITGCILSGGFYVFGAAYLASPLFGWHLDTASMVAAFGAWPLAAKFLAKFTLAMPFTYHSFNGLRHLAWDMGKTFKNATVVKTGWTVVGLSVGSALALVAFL
T1 sequence (A0A384JHJ5 1-192): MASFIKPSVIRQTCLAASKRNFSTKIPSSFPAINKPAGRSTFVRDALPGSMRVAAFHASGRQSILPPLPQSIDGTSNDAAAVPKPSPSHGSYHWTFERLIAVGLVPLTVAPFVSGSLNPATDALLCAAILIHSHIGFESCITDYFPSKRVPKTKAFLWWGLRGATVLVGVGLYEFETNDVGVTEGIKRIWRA
T1 sequence (A0A384K456 1-647 partner): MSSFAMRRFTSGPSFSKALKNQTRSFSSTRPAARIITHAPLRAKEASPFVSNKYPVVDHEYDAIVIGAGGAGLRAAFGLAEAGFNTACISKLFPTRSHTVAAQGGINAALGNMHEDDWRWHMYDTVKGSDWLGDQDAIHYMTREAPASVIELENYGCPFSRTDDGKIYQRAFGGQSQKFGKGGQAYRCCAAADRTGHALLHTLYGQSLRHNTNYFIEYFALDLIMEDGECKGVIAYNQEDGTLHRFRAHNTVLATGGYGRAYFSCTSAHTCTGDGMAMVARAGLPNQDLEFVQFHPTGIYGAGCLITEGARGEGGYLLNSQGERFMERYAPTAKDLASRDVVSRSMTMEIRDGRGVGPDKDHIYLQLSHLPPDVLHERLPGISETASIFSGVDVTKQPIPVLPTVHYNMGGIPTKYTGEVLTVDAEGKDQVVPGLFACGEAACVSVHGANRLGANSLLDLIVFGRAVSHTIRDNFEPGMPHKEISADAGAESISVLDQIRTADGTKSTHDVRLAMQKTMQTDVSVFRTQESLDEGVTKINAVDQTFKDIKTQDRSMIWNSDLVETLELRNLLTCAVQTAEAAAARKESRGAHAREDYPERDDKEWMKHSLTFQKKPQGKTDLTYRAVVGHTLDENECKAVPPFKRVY
Summary of the method: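 DCPIP (45 μM) reduction at 600 nm tracked with 17 mM succinate, 1 mM KCN and 50 mM potassium phosphate, pH 7.2. Compounds were added in acetone (final 1% v/v), and Botrytis cinerea isolate Nick mitochondrial fraction initiated the reaction. Rates minus endogenous activity gave percentage inhibition, plotted semilog against concentration to derive I50 (μM).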

Botrytis cinerea [2] = assay: Vine grey mold (grape berries); type: in vivo; settings: average of six berries, 7-10 days; for pest or weed control at 50 ppm: grape berries treated with 50 ppm, read-out: % DISEASE CONTROL 50 ppm; for pest or weed control at 200 ppm: grape berries treated with 200 ppm, read-out: % DISEASE CONTROL 200 ppm
Summary of the method: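 Preventive berry test: compound at 50 or 200 ppm (acetone/water, 0.05% Tween 20) applied one day before inoculation with 10^6 spores/mL Botrytis conidia. After 7-10 days at 20 °C under 12 h light, infected surface area rated; disease control expressed as percent reduction from control mean; repeated-test values averaged.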

[3] = concentration required to inhibit the rate of DCPIP reduction by 50%; Botrytis cinerea isolate Nick mitochondria; read-out: I50 (μM conc.)

Compound	Disease Control Rating at 0.02 mg/mL (Rhizoctonia solani)	Disease Control Rating at 0.1 mg/mL (Rhizoctonia solani)	Disease Control Rating at 0.5 mg/mL (Rhizoctonia solani)	Disease Control Rating at 20 ppm (Botrytis cinerea [1])	Disease Control Rating at 100 ppm (Botrytis cinerea [1])	Disease Control Rating at 500 ppm (Botrytis cinerea [1])	IC50 (succinate dehydrogenase; [3])	pest or weed control at 50 ppm (Botrytis cinerea [2])	pest or weed control at 200 ppm (Botrytis cinerea [2])	IC50 (succinate dehydrogenase; read-out: I50 (μM conc.); concentration required to inhibit the rate of DCPIP reduction by 50%; Botrytis cinerea isolate Nick mitochondria)
Cn1cc(C(=O)Nc2ccccc2C=C2CCCCC2)c(C(F)F)n1 [Example 116, 1H-pyrazole-4-carboxamide, N-[2-(cyclohexylidenemethyl)phenyl]-3-(difluoromethyl)-1-methyl-]	1	1	3	0	0	1	0.048 µM	21%	68%	
Cn1cc(C(=O)Nc2ccccc2CC2=CCCC2)c(C(F)F)n1 [Example 117, 1H-pyrazole-4-carboxamide, N-[2-(1-cyclopenten-1-ylmethyl)phenyl]-3-(difluoromethyl)-1-methyl-]			0	0	1	2	0.17 µM	80%	19%	
Cn1cc(C(=O)Nc2ccccc2C=C2CCCC2)c(C(F)F)n1 [Example 118, 1H-pyrazole-4-carboxamide, N-[2-(cyclopentylidenemethyl)phenyl]3-(difluoromethyl)-1-methyl-]			1			0	0.029 µM	37%	87%	
Cn1cc(C(=O)Nc2ccccc2C2=CCCCCCC2)c(C(F)F)n1 [Example 119]			2	0	1	2		73%	84%	0.0035 µM
Cn1cc(C(=O)Nc2ccccc2C2=CCCCCCC2)c(C(F)(F)F)n1 [Example 120, 1H-pyrazole-4-carboxamide, N-[2-(1-cycloocten-1-yl)phenyl]-1-methyl-3-(trifluoromethyl)-]			3	0	0	2	0.0041 µM	60%	82%	
Cn1cc(C(=O)Nc2ccccc2C2=CC(C)(C)CC(C)(C)C2)c(C(F)F)n1 [Example 121, 1H-pyrazole-4-carboxamide, 3-(difluoromethyl)-1-methyl-N-[2-(3,3,5,5-tetramethyl-1-cyclohexen-1-yl)phenyl]-]	1	3	3	0	0	1	0.0069 µM	33%	64%	
Cn1cc(C(=O)Nc2ccccc2C2=CCCC2(C)C)c(C(F)F)n1 [Example 122, 1H-pyrazole-4-carboxamide, 3-(difluoromethyl)-N-[2-(5,5-dimethyl-1-cyclopenten-1-yl)phenyl]-1-methyl-]			0	1	2	2	0.034 µM	67%	79%	
Cn1cc(C(=O)Nc2ccccc2C2=CC(C)(C)CC(C)(C)C2)c(C(F)(F)F)n1 [Example 123, 1H-pyrazole-4-carboxamide, 1-methyl-N-[2-(3,3,5,5-tetramethyl-1-cyclohexen-1-yl)phenyl]-3-(trifluoromethyl)-]			0	0	0	0	0.023 µM	14%	36%	
CC1=C(c2ccccc2NC(=O)c2cn(C)nc2C(F)F)C(C)CCC1 (centres unmarked) [Example 124, 1H-pyrazole-4-carboxamide, 3-(difluoromethyl)-N-[2-(2,6-dimethyl-1-cyclohexen-1-yl)phenyl]-1-methyl-]			2	0	1	2	0.013 µM	48%	96%	
CCC1CC=C(c2ccccc2NC(=O)c2cn(C)nc2C(F)F)CC1 (centres unmarked) [Example 125, 1H-pyrazole-4-carboxamide, 3-(difluoromethyl)-N-[2-(4-ethyl-1-cyclohexen-1-yl)phenyl]-1-methyl-]	2	2	3	2	1	2	0.005 µM	88%	93%	
CCC1CC=C(c2ccccc2NC(=O)c2cn(C)nc2C(F)(F)F)CC1 (centres unmarked) [Example 126, 1H-pyrazole-4-carboxamide, N-[2-(4-ethyl-1-cyclohexen-1-yl)phenyl]-1-methyl-3-(trifluoromethyl)-]			3	0	1	1	0.0066 µM	59%	97%	
Cn1cc(C(=O)Nc2ccccc2C=C2CCCC2)c(C(F)(F)F)n1 [Example 127, 1H-pyrazole-4-carboxamide, N-[2-(cyclopentylidenemethyl)phenyl]-1-methyl-3-(trifluoromethyl)-]			2	0	0	1	0.083 µM	12%	52%	
CC(C)C1=C(c2ccccc2NC(=O)c2cn(C)nc2C(F)(F)F)CCCC1 [Example 128, 1H-pyrazole-4-carboxamide, N-[2-[2-(1-methylethyl)-1-cyclohexen-1-yl]phenyl]-1-methyl-3-(trifluoromethyl)-]			0	0	0	0	1.3 µM	0%	0%	
Cn1cc(C(=O)Nc2ccccc2CC2CCCCC2)c(C(F)F)n1 [Example 129, 1H-pyrazole-4-carboxamide, N-[2-(cyclohexylmethyl)phenyl]-3-(difluoromethyl)-1-methyl-]	3	3	3	0	0	0	0.11 µM	7%	0%	
Cn1cc(C(=O)Nc2ccccc2CC2CCCCC2)c(C(F)(F)F)n1 [Example 130, 1H-pyrazole-4-carboxamide, N-[2-(cyclohexylmethyl)phenyl]-1-methyl-3-(trifluoromethyl)-]			2	0	0	0	0.37 µM	2%	21%	
CC(C)C1CCCC=C1c1ccccc1NC(=O)c1cn(C)nc1C(F)(F)F (centres unmarked) [Example 131, 1H-pyrazole-4-carboxamide, 1-methyl-N-[2-[6-(1-methylethyl)-1-cyclohexen-1-yl]phenyl]-3-(trifluoromethyl)-]			2	0	0	0	0.19 µM	7%	0%	
Cn1cc(C(=O)Nc2ccccc2C2=CCC(C(C)(C)C)CC2)c(C(F)F)n1 (centres unmarked) [Example 132, 1H-pyrazole-4-carboxamide, 3-(difluoromethyl)-N-[2-[4-(1,1-dimethylethyl)-1-cyclohexen-1-yl]phenyl]-1-methyl-]	1	2	3			0	0.0035 µM	50%	51%	
